Data taken from article PMC5465288, “[^68Ga]/[^188Re] Complexed [CDTMP] Trans-1,2-Cyclohexyldinitrilotetraphosphonic Acid As a Theranostic Agent for Skeletal Metastases” (Frontiers in Medicine, 2017).

Assay: HAp (hydroxyapatite) binding study
Settings: 20 mg synthetic HAp in 1 mL saline, 10 min incubation at ambient temperature
Experimental: To evaluate HAp binding, 20 mg of synthetic HAp was allowed to incubate in 1 mL of isotonic saline for 24 h. Labeled complex in a volume of 50 µL was then added, subjected to vortex for 10 s and incubated at ambient temperature for 10 min. After incubation, samples had been centrifuged, and the supernatant was removed. Hap fraction was washed twice with 0.5 mL saline, and all the washes were collected. Radioactivity was then checked in combined liquids and HAp fraction using gamma counter.

[^68Ga]-trans-1,2-cyclohexyldinitrilo tetramethylene phosphonic acid [[^68Ga]-CDTMP]
binding to HAp: 89 ± 3%
